According to PubChem BioAssay AID256 (DTP/NCI, 2004):
Where “and” joins values, the source holds several entries; their conditions need not be identical. Equal entries are not always repeated. Toxic doses and inconclusive results are not listed.

System: CD2F1 mice, L1210 leukemia ip, survival T/C
Experiment: NCI In Vivo Anticancer Drug Screen. Data for tumor model L1210 Leukemia (intraperitoneal) in CD2F1 (CDF1) mice
Conditions: higher = longer survival
In short: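 Vehicle-treated tumor-bearing mice served as controls (C) for compound-treated mice (T). Reported figure is T divided by C.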

[1] = endpoint: mean survival time, dose: 100.0 mg/kg/injection, schedule: Q01DX009 (ip), vehicle: saline with Tween-80
[2] = endpoint: mean survival time, dose: 200.0 mg/kg/injection, schedule: Q01DX009 (ip), vehicle: saline with Tween-80
[3] = endpoint: mean survival time, dose: 12.5 mg/kg/injection, schedule: Q01DX009 (ip), vehicle: saline with Tween-80
[4] = endpoint: mean survival time, dose: 12.5 mg/kg/injection, schedule: Q04DX003 (ip), vehicle: saline with Tween-80
[5] = endpoint: mean survival time, dose: 25.0 mg/kg/injection, schedule: Q04DX003 (ip), vehicle: saline with Tween-80
[6] = endpoint: mean survival time, dose: 100.0 mg/kg/injection, schedule: Q01DX001 (ip), vehicle: saline
[7] = endpoint: mean survival time, dose: 200.0 mg/kg/injection, schedule: Q01DX001 (ip), vehicle: saline
[8] = endpoint: mean survival time, dose: 50.0 mg/kg/injection, schedule: Q01DX009 (ip), vehicle: saline with Tween-80

Cc1nc2n[nH]c(N)c2nc1C
T/C (endpoint: mean survival time, dose: 100.0 mg/kg/injection, schedule: Q01DX009 (ip), vehicle: saline): 100 % of control
T/C (endpoint: mean survival time, dose: 200.0 mg/kg/injection, schedule: Q01DX009 (ip), vehicle: saline): 106 % of control
T/C (endpoint: mean survival time, dose: 400.0 mg/kg/injection, schedule: Q01DX009 (ip), vehicle: saline): 106 % of control

COc1ccc(/C=N/NC(=O)c2ccccc2)cc1OC
T/C (endpoint: mean survival time, dose: 12.5 mg/kg/injection, schedule: Q01DX009 (ip), vehicle: other): 98 % of control
T/C (endpoint: mean survival time, dose: 25.0 mg/kg/injection, schedule: Q01DX009 (ip), vehicle: other): 105 % of control
T/C (endpoint: mean survival time, dose: 50.0 mg/kg/injection, schedule: Q01DX009 (ip), vehicle: other): 105 % of control
T/C (endpoint: mean survival time, dose: 100.0 mg/kg/injection, schedule: Q01DX009 (ip), vehicle: other): 107 % of control
T/C (endpoint: mean survival time, dose: 200.0 mg/kg/injection, schedule: Q01DX009 (ip), vehicle: other): 107 % of control

[NH-]C(CCC(N)=O)C(=O)O.[NH-]C(CCC(N)=O)C(=O)O.[Zn+2] (centres undefined)
T/C (endpoint: median survival time, dose: 6.25 mg/kg/injection, schedule: Q01DX009 (ip), vehicle: saline with Tween-80): 102 % of control
T/C (endpoint: median survival time, dose: 12.5 mg/kg/injection, schedule: Q01DX009 (ip), vehicle: saline with Tween-80): 101 % of control
T/C (endpoint: median survival time, dose: 25.0 mg/kg/injection, schedule: Q01DX009 (ip), vehicle: saline with Tween-80): 96 % of control
T/C (endpoint: median survival time, dose: 50.0 mg/kg/injection, schedule: Q01DX009 (ip), vehicle: saline with Tween-80): 101 % of control

COC(=O)C(NC(=O)OCc1ccccc1)C(=O)OC
T/C [1]: 105 % of control
T/C [2]: 107 % of control
T/C (endpoint: mean survival time, dose: 400.0 mg/kg/injection, schedule: Q01DX009 (ip), vehicle: saline with Tween-80): 112 % of control

O=C(O)c1cccc(C(=O)O)c1C(=O)O.[NH-]C1CCCCC1[NH-].[Pt+2]
T/C (endpoint: median survival time, dose: 3.12 mg/kg/injection, schedule: Q04DX003 (ip), vehicle: saline): 102 % of control and 109 % of control
T/C (endpoint: median survival time, dose: 6.25 mg/kg/injection, schedule: Q04DX003 (ip), vehicle: saline): 114 % of control and 103 % of control
T/C (endpoint: median survival time, dose: 12.5 mg/kg/injection, schedule: Q04DX003 (ip), vehicle: saline): 115 % of control and 108 % of control
T/C (endpoint: median survival time, dose: 25.0 mg/kg/injection, schedule: Q04DX003 (ip), vehicle: saline): 117 % of control
T/C (endpoint: median survival time, dose: 50.0 mg/kg/injection, schedule: Q04DX003 (ip), vehicle: saline): 152 % of control
T/C (endpoint: median survival time, dose: 100.0 mg/kg/injection, schedule: Q04DX003 (ip), vehicle: saline): 178 % of control and 197 % of control
T/C (endpoint: median survival time, dose: 200.0 mg/kg/injection, schedule: Q04DX003 (ip), vehicle: saline): 282 % of control and 375 % of control

CCCCCCCCCCCCCCCC[n+]1ccc(C(N)=O)cc1
T/C [3]: 105 % of control
T/C [4]: 100 % of control
T/C [5]: 98 % of control
T/C (endpoint: mean survival time, dose: 50.0 mg/kg/injection, schedule: Q04DX003 (ip), vehicle: saline with Tween-80): 97 % of control

CN(C)CCCN(C)CCCN(C)C
T/C (endpoint: mean survival time, dose: 75.0 mg/kg/injection, schedule: Q01DX001 (ip), vehicle: saline): 104 % of control
T/C (endpoint: mean survival time, dose: 150.0 mg/kg/injection, schedule: Q01DX001 (ip), vehicle: saline): 103 % of control

c1cnc(N2CC2)nn1
T/C [6]: 105 % of control
T/C [7]: 113 % of control

CC1CCC=C2C(=O)C3OC3C(C(C)(C)O)C21C (centres undefined)
T/C (endpoint: mean survival time, dose: 100.0 mg/kg/injection, schedule: Q04DX003 (ip), vehicle: acetone): 93 % of control
T/C (endpoint: mean survival time, dose: 200.0 mg/kg/injection, schedule: Q04DX003 (ip), vehicle: acetone): 88 % of control
T/C (endpoint: mean survival time, dose: 400.0 mg/kg/injection, schedule: Q04DX003 (ip), vehicle: acetone): 88 % of control

COc1ccc(/C=C(\C)[N+](=O)[O-])cc1OC
T/C (endpoint: mean survival time, dose: 12.5 mg/kg/injection, schedule: Q01DX009 (ip), vehicle: water): 105 % of control
T/C (endpoint: mean survival time, dose: 25.0 mg/kg/injection, schedule: Q01DX009 (ip), vehicle: water): 93 % of control
T/C (endpoint: mean survival time, dose: 50.0 mg/kg/injection, schedule: Q01DX009 (ip), vehicle: water): 93 % of control

Cc1ccc(S(=O)(=O)Nc2c([N+](=O)[O-])cc([N+](=O)[O-])c3ccccc23)cc1
T/C (endpoint: mean survival time, dose: 6.25 mg/kg/injection, schedule: Q01DX009 (ip), vehicle: saline with Tween-80): 104 % of control
T/C (endpoint: mean survival time, dose: 6.25 mg/kg/injection, schedule: Q04DX003 (ip), vehicle: saline with Tween-80): 100 % of control
T/C [3]: 100 % of control
T/C [4]: 96 % of control
T/C (endpoint: mean survival time, dose: 25.0 mg/kg/injection, schedule: Q01DX009 (ip), vehicle: saline with Tween-80): 103 % of control
T/C [5]: 100 % of control

CC(Oc1ccc(Cl)cc1)C(/C=N/N=C(N)N)=N/N=C(N)N (centres undefined)
T/C (endpoint: mean survival time, dose: 1.56 mg/kg/injection, schedule: Q01DX009 (ip), vehicle: saline): 100 % of control
T/C (endpoint: mean survival time, dose: 3.13 mg/kg/injection, schedule: Q01DX009 (ip), vehicle: saline): 98 % of control
T/C (endpoint: mean survival time, dose: 6.25 mg/kg/injection, schedule: Q01DX009 (ip), vehicle: saline): 102 % of control
T/C (endpoint: mean survival time, dose: 12.5 mg/kg/injection, schedule: Q01DX009 (ip), vehicle: saline): 100 % of control
T/C (endpoint: mean survival time, dose: 25.0 mg/kg/injection, schedule: Q01DX009 (ip), vehicle: saline): 96 % of control and 101 % of control

O=C(CC(=O)c1ccc(Cl)cc1)Cc1ccc2ccccc2n1
T/C (endpoint: mean survival time, dose: 100.0 mg/kg/injection, schedule: Q04DX002 (ip), vehicle: saline with Tween-80): 97 % of control
T/C (endpoint: mean survival time, dose: 200.0 mg/kg/injection, schedule: Q04DX002 (ip), vehicle: saline with Tween-80): 97 % of control
T/C (endpoint: mean survival time, dose: 400.0 mg/kg/injection, schedule: Q04DX002 (ip), vehicle: saline with Tween-80): 97 % of control

NNC(=O)CCc1ccccc1Br
T/C [8]: 92 % of control and 102 % of control
T/C [1]: 102 % of control and 103 % of control
T/C (endpoint: mean survival time, dose: 100.0 mg/kg/injection, schedule: Q04DX003 (ip), vehicle: saline with Tween-80): 100 % of control
T/C [2]: 93 % of control
T/C (endpoint: mean survival time, dose: 200.0 mg/kg/injection, schedule: Q04DX003 (ip), vehicle: saline with Tween-80): 97 % of control

CCOC(=O)Nc1cc2c(c(N)n1)N=C(c1ccc(Cl)cc1)CN2
T/C (endpoint: mean survival time, dose: 3.0 mg/kg/injection, schedule: Q01DX009 (ip), vehicle: Klucel (hydroxypropylcellulose) (HPC)): 110 % of control
T/C (endpoint: mean survival time, dose: 6.0 mg/kg/injection, schedule: Q01DX009 (ip), vehicle: Klucel (hydroxypropylcellulose) (HPC)): 110 % of control
T/C (endpoint: mean survival time, dose: 12.0 mg/kg/injection, schedule: Q01DX009 (ip), vehicle: Klucel (hydroxypropylcellulose) (HPC)): 114 % of control
T/C (endpoint: mean survival time, dose: 12.5 mg/kg/injection, schedule: Q01DX001 (ip), vehicle: Klucel (hydroxypropylcellulose) (HPC)): 102 % of control
T/C (endpoint: mean survival time, dose: 25.0 mg/kg/injection, schedule: Q01DX001 (ip), vehicle: Klucel (hydroxypropylcellulose) (HPC)): 111 % of control
T/C (endpoint: mean survival time, dose: 25.0 mg/kg/injection, schedule: Q01DX009 (ip), vehicle: Klucel (hydroxypropylcellulose) (HPC)): 110 % of control
T/C (endpoint: mean survival time, dose: 50.0 mg/kg/injection, schedule: Q01DX001 (ip), vehicle: Klucel (hydroxypropylcellulose) (HPC)): 114 % of control
T/C (endpoint: mean survival time, dose: 100.0 mg/kg/injection, schedule: Q01DX001 (ip), vehicle: Klucel (hydroxypropylcellulose) (HPC)): 116 % of control

Cc1ccc(NC(=O)/C=C/C(=O)O)cc1C
T/C [8]: 95 % of control
T/C [1]: 101 % of control
T/C [2]: 105 % of control

Cc1ccc(P(=S)(c2ccccc2)c2ccccc2)c2ccccc12
T/C [6]: 104 % of control
T/C [7]: 101 % of control
T/C (endpoint: mean survival time, dose: 400.0 mg/kg/injection, schedule: Q01DX001 (ip), vehicle: saline): 95 % of control

O=C1C2(CCCCC2)C(=O)C12CCCCC2
T/C [8]: 96 % of control
T/C [1]: 110 % of control
T/C [2]: 93 % of control

C=CCSc1ncnc2c1ncn2C1OC(CO)C(O)C1O (centres undefined)
T/C (endpoint: mean survival time, dose: 88.0 mg/kg/injection, schedule: Q01DX009 (ip), vehicle: carboxymethylcellulose (CMC)): 154 % of control
T/C (endpoint: mean survival time, dose: 133.0 mg/kg/injection, schedule: Q01DX009 (ip), vehicle: carboxymethylcellulose (CMC)): 158 % of control
